# Data reported in patent US8278455B2, “5- or 6-substituted benzimidazole derivatives as inhibitors of respiratory syncytial virus replication” (Janssen Pharmaceutica N.V., priority 2003, dated 2012).
# Legend:
# [1] = test system: Respiratory Syncytial Virus; experiment: In vitro screening for activity against Respiratory Syncytial Virus (MTT tetrazolium colorimetric assay, HeLa cells); type: cell-based; details: human respiratory syncytial virus, 168 h; protection against RSV cytopathology in HeLa cells, 7 days after infection; pEC50 = −log of EC50 in molar units
# Summary of the method: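 HeLa cells (4×10^5 cells/ml) added 2 h after ~100 TCID50 RSV to wells holding five-fold compound dilutions, in Eagle's medium with 5% FCS and 20 mM Hepes; mock-infected rows gave cytotoxicity. After 7 days at 37 °C, MTT read at 540 minus 690 nm; EC50/CC50 from dose-response, reported as pEC50 categories.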
Structure (SMILES),EC50 [1] [nM],melting point [°C]
Cc1ccc(O)c(Cn2c(NC3CCN(C)CC3)nc3ccccc32)n1 [Compound 101],398,> 260
"Cc1cccc(NC(=O)c2ccc3nc(NC4CCN(C)CC4)n(Cc4nc(C)ccc4O)c3c2)c1 [Compound 116, 3-(3-hydroxy-6-methyl-pyridin-2-ylmethyl)-2-(1-methyl-piperidin-4-ylamino)-3H-benzoimidazole-5-carboxylic acid m-tolylamide]",7940,172
"Cc1ccc(O)c(Cn2c(NC3CCN(CCO)CC3)nc3ccc(CCCN)cc32)n1.Cl [Compound 160, 2-{6-(3-Amino-propyl)-2-[1-(2-hydroxy-ethyl)-piperidin-4-ylamino]-benzoimidazol-1-ylmethyl}-6-methyl-pyridin-3-ol hydrochloride salt]",12.6,185
"Cc1cc(C)cc(NCc2ccc3nc(NCC(O)CO)n(Cc4nc(C)ccc4O)c3c2)c1 (centres unmarked) [Compound 175, 3-[6-[(3,5-dimethyl-phenylamino)methyl]-1-(3-hydroxy-6-methyl-pyridin-2-ylmethyl)-1H-benzoimidazol-2-ylamino]-propane-1,2-diol]",31.6,128
"COc1ccc(CCNc2nc3ccc(CNc4cc(C)cc(C)c4)cc3n2Cc2nc(C)ccc2O)cc1 [Compound 190, 2-{6-[(3,5-Dimethyl-phenylamino)-methyl]-2-[2-(4-methoxy-phenyl)-ethylamino]-benzoimidazol-1-ylmethyl}-6-methyl-pyridin-3-ol]",> 100000,178

# The next molecules have a lower EC50 [1] than those just listed; values first:
EC50 [1] [nM],melting point [°C],Structure (SMILES)
3.98,150,"Cc1cc(C)cc(NCc2ccc3nc(NCCCN4CCN(C)CC4)n(Cc4nc(C)ccc4O)c3c2)c1 [Compound 174, 2-{6-[(3,5-Dimethyl-phenylamino)-methyl]-2-[3-(4-methyl-piperazin-1-yl)-propylamino]-benzoimidazol-1-ylmethyl}-6-methyl-pyridin-3-ol]"
3.16,123,"Cc1cccc(NCc2cc(C)c3nc(NC4CCN(CCO)CC4)n(Cc4nc(C)ccc4O)c3c2)c1 [Compound 171, 2-[2-[1-(2-Hydroxy-ethyl)-piperidin-4-ylamino]-4-methyl-6-(m-tolylamino-methyl)-benzoimidazol-1-ylmethyl]-6-methyl-pyridin-3-ol]"
1.58,161,"Cc1cc(C)cc(NCc2ccc3nc(NCCCN4CCCCC4)n(Cc4nc(C)ccc4O)c3c2)c1 [Compound 173, 2-[6-[(3,5-dimethyl-phenylamino)-methyl]-2-(3-piperidin-1-yl-propylamino)-benzoimidazol-1-ylmethyl]-6-methyl-pyridin-3-ol]"
1.26,260,"Cc1ccc(O)c(Cn2c(NC3CCN(CCN)CC3)nc3ccc(C=Cc4ccccc4)cc32)n1.Cl [Compound 146, 2-{2-[1-(2-Amino-ethyl)-piperidin-4-ylamino]-6-styryl-benzoimidazol-1-ylmethyl}-6-methyl-pyridin-3-ol hydrochloride salt]"
1,181,"Cc1ccc(O)c(Cn2c(NC3CCN(CCN)CC3)nc3ccc(CCc4ccccc4)cc32)n1.Cl [Compound 143, 2-{2-[1-(2-amino-ethyl)-piperidin-4-ylamino]-6-phenethyl-benzoimidazol-1-ylmethyl}-6-methyl-pyridin-3-ol hydrochloride salt]"
